# “Also recorded” adds a separate entry of the source.
# What was measured:
# [1] = target: human H3 receptor (Homo sapiens (Human), UniProt Q9Y5N1); experiment: Human H3 receptor HTRF cAMP assay; format: cell-based; conditions: HEK293 cells expressing the human H3 receptor, forskolin 2 μM; read-out: IC50 H3R
# Source text: Homogeneous time-resolved fluorescence assays (HTRF®, Cisbio) detect levels of cAMP in lysed cell preparations using a europium or terbium cryptate-labeled anti-cAMP antibody and fluorophore-labeled cAMP (cAMP-d2). In the absence of exogenous cAMP, the anti-cAMP antibody binds to cAMP-d2. Photoexcitation of the cryptate donor results in a combination of cryptate emission at 620 nm and fluorescence resonance energy transfer (FRET) from the cryptate to the acceptor d2 fluorophore, which then fluoresces at 665 nm. The 620/665 nm emission ratio is monitored. In the presence of exogenous cAMP, which competes with cAMP-d2 for binding to the anti-cAMP antibody, FRET is decreased and the […], providing a sensitive and accurate means to measure cAMP levels in biological assays.
# Compounds of the present invention were evaluated using the human H3 receptor (H3R) HTRF cAMP assay. In this assay, HEK293 cells expressing the human H3 receptor were suspended in PBS containing 100 μM IBMX and plated into 384-well assay plates (Perkin Elmer Proxiplate 384-Plus; 15,000 cells per well; 5 μL plating volume) and allowed to equilibrate for an hour. Test compounds were serially diluted in 100% DMSO and then further diluted in PBS containing forskolin (2 μM). Test compounds (5 μL) were then added to the assay plate and the mixture was incubated for 1 hour. HTRF assay reagents (Cisbio, Dynamic 2 cAMP Kit), cAMP-d2 and cryptate-labeled anti-cAMP antibody, are mixed with cell lysis buffer and added to the assay plate. After 1-hour incubation with these reagents, the assay plate was read on an HTRF-compatible microplate reader (Perkin Elmer EnVision or BMG Pherastar). A cAMP standard curve was included on each assay plate and HTRF emission ratios for test compounds were fit to this curve to generate accurate measures of cAMP levels in each test well.
# [2] = tested on: histamine-induced scratching behavior in mice; experiment: Histamine-induced model for pruritus (Example 6); format: in vivo, C57BL/6j male mice; conditions: oral administration, histamine s.c. 30 min post-dosing, bouts counted 5-15 min, FIG. 6
# Experimental: H3R inhibitors, Compound 3 and Compound 11, were dissolved in 0.5% methylcellulose at the appropriate concentration and 100 μL were administered orally to 8-week-old C57BL/6j male mice. Thirty minutes post-dosing, 25 μL of 40 mg/mL histamine solution was injected subcutaneously at the rostral part of the back. Mice were video recorded and the number of scratching bouts that occurred between 5 and 15 minutes was counted after histamine injection.
# Sequence of human H3 receptor (Q9Y5N1 whole entry): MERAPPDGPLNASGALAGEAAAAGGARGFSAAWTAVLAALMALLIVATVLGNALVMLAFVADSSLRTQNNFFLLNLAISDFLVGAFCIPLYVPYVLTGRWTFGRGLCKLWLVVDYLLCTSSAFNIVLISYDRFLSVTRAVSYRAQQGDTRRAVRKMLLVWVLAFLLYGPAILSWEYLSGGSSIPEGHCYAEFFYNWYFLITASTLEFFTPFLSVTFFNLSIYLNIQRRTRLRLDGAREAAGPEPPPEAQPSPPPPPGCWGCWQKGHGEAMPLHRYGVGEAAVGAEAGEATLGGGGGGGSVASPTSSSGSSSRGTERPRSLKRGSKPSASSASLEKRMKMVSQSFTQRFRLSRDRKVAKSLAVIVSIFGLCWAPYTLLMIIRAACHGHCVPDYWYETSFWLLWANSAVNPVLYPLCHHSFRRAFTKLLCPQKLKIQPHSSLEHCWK
Compound,IC50 [1] [nM],histamine-induced scratching behavior (number of scratching bouts) [2]
"C[C@@H]1CCCN1CCc1ccc(-c2ccc(C(=O)O)cc2)cc1 [Compound 1, (R)-4′-(2-(2-Methylpyrrolidin-1-yl)ethyl)biphenyl-4-carboxylic Acid]",3.8,
"C[C@@H]1CCCN1CCc1ccc(-c2ccc(CC(=O)O)cc2)cc1 [Compound 2, (R)-2-(4′-(2-(2-Methylpyrrolidin-1-yl)ethyl)biphenyl-4-yl)acetic Acid]",8.1,
"CCOC(=O)COCc1ccc(-c2ccc(CCN3CCC[C@H]3C)cc2)cc1 [Compound 4, (R)-Ethyl 2-((4′-(2-(2-Methylpyrrolidin-1-yl)ethyl)biphenyl-4-yl)methoxy)acetate]",0.67,
"C[C@@H]1CCCN1CCc1ccc(-c2ccc(COCC(=O)O)cc2)cc1 [Compound 5, (R)-2-((4′-(2-(2-Methylpyrrolidin-1-yl)ethyl)biphenyl-4-yl)methoxy)acetic Acid]",5.5,
"C[C@@H]1CCCN1CCc1ccc(-c2ccc(CCn3cnnn3)cc2)cc1 [Compound 7, (R)-1-(2-(4′-(2-(2-Methylpyrrolidin-1-yl)ethyl)biphenyl-4-yl)ethyl)-1H-tetrazole]",0.93,
"C[C@@H]1CCCN1CCc1ccc(-c2ccc(CCn3ncnn3)cc2)cc1 [Compound 8, (R)-2-(2-(4′-(2-(2-Methylpyrrolidin-1-yl)ethyl)biphenyl-4-yl)ethyl)-2H-tetrazole]",1.2,
"COC(=O)CCc1ccc(-c2ccc(CCN3CCC[C@H]3C)cc2)cc1 [Compound 9, (R)-Methyl 3-(4′-(2-(2-Methylpyrrolidin-1-yl)ethyl)biphenyl-4-yl)propanoate]",1.1,
"C[C@@H]1CCCN1CCc1ccc(-c2ccc(C(C)(C)C(=O)O)cc2)cc1 [Compound 10, (R)-2-Methyl-2-(4′-(2-(2-methylpyrrolidin-1-yl)ethyl)biphenyl-4-yl)propanoic Acid]",3.1,
"CCOC(=O)CCc1ccc(-c2ccc(CCN3CCC[C@H]3C)cc2)cc1 [Compound 11, (R)-Ethyl 3-(4′-(2-(2-Methylpyrrolidin-1-yl)ethyl)biphenyl-4-yl)propanoate]",1.8,effectively inhibit histamine-induced pruritus; also recorded: inhibit histamine-induced scratching behavior
"C[C@@H]1CCCN1CCc1ccc(-c2ccc(CCC(=O)NC(C)(C)C(=O)OC(C)(C)C)cc2)cc1 [Compound 12, (R)-tert-Butyl 2-Methyl-2-(3-(4′-(2-(2-methylpyrrolidin-1-yl)ethyl)biphenyl-4-yl)propanamido)propanoate]",0.95,
"C[C@H](NC(=O)CCc1ccc(-c2ccc(CCN3CCC[C@H]3C)cc2)cc1)C(=O)OC(C)(C)C [Compound 13, (S)-tert-Butyl 2-(3-(4′-(2-((R)-2-Methylpyrrolidin-1-yl)ethyl)biphenyl-4-yl)propanamido)propanoate]",2.1,

# Further lines, with some results ahead:
IC50 [1] [nM],Compound,histamine-induced scratching behavior (number of scratching bouts) [2]
3,"CCOC(=O)C1CCCCC1NC(=O)C1(c2ccc(-c3ccc(CCN4CCC[C@H]4C)cc3)cc2)CCCC1 (stereo in doubt) [Compound 20, (1R,2S)-Ethyl 2-(1-(4′-(2-((R)-2-Methylpyrrolidin-1-yl)ethyl)biphenyl-4-yl)cyclopentanecarboxamido)cyclohexanecarboxylate]",
1.5,"COC(=O)CCCNC(=O)C1(c2ccc(-c3ccc(CCN4CCC[C@H]4C)cc3)cc2)CCCC1 [Compound 16, (R)-Methyl 4-(1-(4′-(2-(2-Methylpyrrolidin-1-yl)ethyl)biphenyl-4-yl)cyclopentanecarboxamido)butanoate]",
0.79,"C[C@H](NC(=O)CCc1ccc(-c2ccc(CCN3CCC[C@H]3C)cc2)cc1)C(=O)O [Compound 18, (S)-2-(3-(4′-(2-((R)-2-methylpyrrolidin-1-yl)ethyl)biphenyl-4-yl)propanamido)propanoic acid]",
0.99,"COC(=O)CNC(=O)CCc1ccc(-c2ccc(CCN3CCC[C@H]3C)cc2)cc1 [Compound 24, (R)-Methyl 2-(3-(4′-(2-(2-Methylpyrrolidin-1-yl)ethyl)biphenyl-4-yl)propanamido)acetate]",
3.3,"COC(=O)C1(c2ccc(-c3ccc(CCN4CCC[C@H]4C)cc3)cc2)CCCC1 [Compound 25, (R)-Methyl 1-(4′-(2-(2-Methylpyrrolidin-1-yl)ethyl)biphenyl-4-yl)cyclopentanecarboxylate]",
3.8,"C[C@@H]1CCCN1CCc1ccc(-c2ccc(CCC(=O)NCC(=O)OC(C)(C)C)cc2)cc1 [Compound 26, (R)-tert-Butyl 2-(3-(4′-(2-(2-Methylpyrrolidin-1-yl)ethyl)biphenyl-4-yl)propanamido)acetate]",
1.9,"COC(=O)CNC(=O)C1(c2ccc(-c3ccc(CCN4CCC[C@H]4C)cc3)cc2)CCCC1 [Compound 27, (R)-Methyl 2-(1-(4′-(2-(2-Methylpyrrolidin-1-yl)ethyl)biphenyl-4-yl)cyclopentanecarboxamido)acetate]",
2.1,"C[C@@H]1CCCN1CCc1ccc(-c2ccc(C3(C(=O)NCCCC(=O)O)CCCC3)cc2)cc1 [Compound 33, (R)-4-(1-(4′-(2-(2-Methylpyrrolidin-1-yl)ethyl)biphenyl-4-yl)cyclopentanecarboxamido)butanoic Acid]",
0.96,"CCOC(=O)C1CCN(C(=O)CCc2ccc(-c3ccc(CCN4CCC[C@H]4C)cc3)cc2)CC1 [Compound 35, (R)-Ethyl 1-(3-(4′-(2-(2-Methylpyrrolidin-1-yl)ethyl)biphenyl-4-yl)propanoyl)piperidine-4-carboxylate]",
0.78,"C[C@@H]1CCCN1CCc1ccc(-c2ccc(Cc3nnn[nH]3)cc2)cc1 [Compound 37, (R)-5-((4′-(2-(2-Methylpyrrolidin-1-yl)ethyl)biphenyl-4-yl)methyl)-1H-tetrazole]",
1.2,"COC(=O)C(C)(C)NC(=O)c1ccc(-c2ccc(CCN3CCC[C@H]3C)cc2)cc1 [Compound 38, (R)-Methyl 2-Methyl-2-(4′-(2-(2-methylpyrrolidin-1-yl)ethyl)biphenyl-4-ylcarboxamido)propanoate]",
2.5,"C[C@@H]1CCCN1CCc1ccc(-c2ccc(C(=O)NCCC(=O)O)cc2)cc1 [Compound 43, (R)-3-(4′-(2-(2-Methylpyrrolidin-1-yl)ethyl)biphenyl-4-ylcarboxamido)propanoic Acid]",
6.9,"C[C@@H]1CCCN1CCc1ccc(-c2ccc(CCc3nnn[nH]3)cc2)cc1 [Compound 44, (R)-5-(2-(4′-(2-(2-Methylpyrrolidin-1-yl)ethyl)biphenyl-4-yl)ethyl)-1H-tetrazole]",
0.97,"C[C@@H]1CCCN1CCc1ccc(-c2ccc(CCCC(=O)O)cc2)cc1 [Compound 45, (R)-4-(4′-(2-(2-Methylpyrrolidin-1-yl)ethyl)biphenyl-4-yl)butanoic Acid]",

# Source: US9365511B2, “Biphenyl-ethyl-pyrrolidine derivatives as histamine H3 receptor modulators for the treatment of cognitive disorders” (Arena Pharmaceuticals, Inc., priority 2013, dated 2016)
